Laboratory results as given in patent US8357406B2, “Method for preparing raw material for functional foods from barley or wheat seeds” (priority 2009, dated 2013).

Experiments:
Format in all cases: biochemical
[1] = DPPH radical scavenging activity; conditions: 0.4 mM DPPH, room temperature 10 min, absorbance 517 nm; average±SD of three measurements
Method: For use in this assay, the samples prepared in the Examples and Comparative Examples were lyophilised and/or dried and pulverized into powders.
The samples were evaluated for DPPH radical scavenging activity according to the Brand-Williams method (Brand-Williams et al., Use of a free radical method to evaluate antioxidant activity. Food Sci. Technol. 28(1): 25-30, (1995)). The samples were added at various concentrations to 0.4 mM DPPH which was then incubated at room temperature for 10 min, followed by measuring absorbance at 517 nm.
(§1) The data are average±standard deviation of three measurements.
For the positive control, the commercially available antioxidant BHA ([…], butylated hydroxy anisole) was employed.

[2] = Superoxide anion radical scavenging activity (NBT reduction method, xanthine/xanthine oxidase system); conditions: 25 mU/mL xanthine oxidase, 0.05 mM xanthine, 0.6 mM NBT, 25° C. 20 min, absorbance 560 nm; average±SD of three measurements
Method: Superoxide anion radical scavenging activity was evaluated by the NBT (nitro blue tetrazolium) reduction method in which NBT is reduced by the superoxide anion radicals formed in a xanthine/xanthine oxydase system.
Along with 25 mU/mL of xanthine oxidase, the samples were added at various concentrations to 1.5 mL of a reaction solution containing 50 mM potassium phosphate buffer (pH 7.8), 0.05 mM xanthine, and 0.6 mM NBT, and incubated at 25° C. for 20 min before measuring absorbance at 560 nm.
as §1
For a positive control, the commercially available antioxidant BHA ([…], butylated hydroxy anisole) was employed.

xanthine oxidase = xanthine oxidase (Homo sapiens, UniProt P47989); test: Inhibitory activity against xanthine oxidase (uric acid production, absorbance at 290 nm); conditions: samples 1 mg/mL, 50 mU/ml xanthine oxidase; average±SD of three measurements
xanthine oxidase, sequence (P47989 whole entry, species assumed): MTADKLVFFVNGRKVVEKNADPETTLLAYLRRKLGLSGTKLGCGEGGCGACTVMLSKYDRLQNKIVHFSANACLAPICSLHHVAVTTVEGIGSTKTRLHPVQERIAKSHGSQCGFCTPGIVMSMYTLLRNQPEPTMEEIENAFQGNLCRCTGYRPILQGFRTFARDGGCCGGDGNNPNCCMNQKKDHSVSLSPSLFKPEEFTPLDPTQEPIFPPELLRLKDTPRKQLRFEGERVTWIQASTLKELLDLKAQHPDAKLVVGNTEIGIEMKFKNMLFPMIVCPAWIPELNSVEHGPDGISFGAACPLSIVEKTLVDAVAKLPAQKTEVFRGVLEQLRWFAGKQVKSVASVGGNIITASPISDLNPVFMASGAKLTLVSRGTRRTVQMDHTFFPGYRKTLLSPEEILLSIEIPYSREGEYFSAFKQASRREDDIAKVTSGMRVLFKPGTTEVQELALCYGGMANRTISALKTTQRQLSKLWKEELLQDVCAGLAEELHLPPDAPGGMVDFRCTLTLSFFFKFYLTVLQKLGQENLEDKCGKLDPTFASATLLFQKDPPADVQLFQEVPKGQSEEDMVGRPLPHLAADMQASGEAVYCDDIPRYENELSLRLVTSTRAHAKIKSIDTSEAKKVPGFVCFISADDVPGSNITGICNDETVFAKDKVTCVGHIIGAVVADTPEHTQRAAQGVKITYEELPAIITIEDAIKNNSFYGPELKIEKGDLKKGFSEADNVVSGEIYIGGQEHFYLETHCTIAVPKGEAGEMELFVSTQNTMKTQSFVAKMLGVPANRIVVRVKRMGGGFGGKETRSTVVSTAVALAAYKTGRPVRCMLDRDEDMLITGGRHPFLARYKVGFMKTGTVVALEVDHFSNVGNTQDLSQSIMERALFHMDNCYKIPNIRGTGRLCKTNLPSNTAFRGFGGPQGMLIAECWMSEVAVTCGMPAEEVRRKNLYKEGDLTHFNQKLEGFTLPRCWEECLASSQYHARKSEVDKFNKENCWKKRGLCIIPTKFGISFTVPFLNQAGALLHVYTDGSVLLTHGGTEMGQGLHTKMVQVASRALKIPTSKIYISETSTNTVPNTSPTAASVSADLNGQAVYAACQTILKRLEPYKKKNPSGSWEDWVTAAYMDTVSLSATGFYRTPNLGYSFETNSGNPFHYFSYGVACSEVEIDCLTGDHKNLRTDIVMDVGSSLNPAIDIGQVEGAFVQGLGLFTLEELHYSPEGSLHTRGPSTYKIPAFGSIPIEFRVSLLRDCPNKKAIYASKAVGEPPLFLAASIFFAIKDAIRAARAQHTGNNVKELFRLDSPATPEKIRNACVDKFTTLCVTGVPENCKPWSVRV
Method: Inhibitory activity against xanthine oxidase was evaluated by the level of the uric acid produced in the xanthine/xanthine oxidase system, which can be quantitatively analyzed by absorbance at 290 nm.
100 μL of 200 mM phosphate buffer (pH 7.5) containing 0.5 mM xanthine and 1 mM EDTA was mixed with 100 μL of the samples (1 mg/mL) to which 50 mU/ml xanthine oxidase was then added to induce the production of uric acid. The produced uric acid was quantitatively analyzed by absorbance at 290 nm.
Allopurinol, a xanthine […] inhibitor used to treat gout, was used as a positive control.

COc1ccc(O)c(C(C)(C)C)c1 [BHA, butylated hydroxy anisole]
DPPH Radical Scavenging Activity IC50 [1]: 620 ± 110 mg/L
Superoxide Anion Radical Scavenging Activity IC50 [2]: 1120 ± 240 mg/L

Oc1ncnc2[nH]ncc12 [Allopurinol]
Xanthine oxidase Inhibition (%) (xanthine oxidase): 88.2 ± 2.1%
